Assays:
HRAS^G12V = molecular target: T1, HRAS^G12V (Homo sapiens, UniProt P01112, G12V); assay: cell BRET RAS-effector interaction assay, dose response […]; assay type: cell-based
T1 construct: full-length (RLuc8 fusion); with CRAF

NRAS^Q61H = molecular target: T2, NRAS^Q61H (Homo sapiens, UniProt P01111, Q61H); assay: as above; assay type: cell-based
T2 construct: full-length (RLuc8 fusion); with CRAF

KRAS166^G12V = molecular target: T3, KRAS166^G12V (Homo sapiens, UniProt P01116, G12V); assay: SPR screen and waterLOGSY NMR; assay type: binding
T3 construct: gene KRAS; KRAS166

| Structure (SMILES) | cell BRET RAS-effector interaction assay, dose response 5-20 μM (HRAS^G12V) | cell BRET RAS-effector interaction assay, dose response 5-20 μM (NRAS^Q61H) | SPR screen and waterLOGSY NMR (KRAS166^G12V) |
| --- | --- | --- | --- |
| COc1cccc(-c2ccc(Nc3ccc(CN(C)C)cc3)c(OC)c2F)c1 [Ch-3] | Ch-3 interferes with NRAS and HRAS isoforms using the BRET biosensor assay | Ch-3 interferes with NRAS and HRAS isoforms using the BRET biosensor assay | – |
| CCCN1CCN(C(=O)c2c[nH]cn2)CC(Cc2ccc(-c3ccccc3)cc2)C1=O (stereo not shown) [PPIN-1] | – | – | PPIN-1 and -2 were confirmed to bind to KRAS166^G12V |
| COc1cccc(-c2cccc(CC3(C(=O)NCCCn4ccnc4)CCOCC3)c2)c1 [PPIN-2] | – | – | PPIN-1 and -2 were confirmed to bind to KRAS166^G12V |
